Results taken from US7098195B2, “Fluorinated glucosamine analogs useful for modulating post-translational glycosylations on cells” (Health Research, Inc., priority 2001, dated 2006).

Assays:
[1] = tested on: panel of human tumor cell lines as well as normal endothelial cells; experiment: Growth inhibition (IC50) of human tumor cell lines and normal endothelial cells; format: cell-based; conditions: newly synthesized compounds compared with compounds synthesized by the original method
Text: Before conducting experiments with newly synthesized 3- and 4-F-GlcNAc the effects of 3- and 4-F-GlcNAc on the growth of a panel of human tumor cell lines as well as normal endothelial cells (i.e. IC50 values) were first determined and compared with the original growth inhibitory action (9 Bernacki, R. J. et al. (1977) J. Supra. Stru., 7:235–250; 10 Sharma, M. and W. Korytnyk (1980) Carbohyd. Res., 79:39–51;11 Sharma, M. et al. (1990). Carbohyd. Res., 198:205–22).

[2] = tested on: HECA-452 epitopes; experiment: Flow cytometric analysis of HECA-452 epitopes on human T-lymphocytes; format: cell-based; conditions: for HECA-452 Mean Channel Fluorescence: CLA+ T-cells
Description: Only positive cells, which were those cells with fluorescence above background autofluorescence and fluorochrome-conjugated secondary Ab staining, were analyzed.
For analysis of CLA expression on T-cells treated with glycoconjugate modifiers, CLA^+ T-cells were first pretreated with neuraminidase (0.1 U/ml at 37° C. for 1 h) to eliminate functional CLA and cleave all HECA-452 reactive epitopes from the cell surface (35–38). Since we wanted to investigate whether these compounds directly affected CLA expression and function, neuraminidase pretreatment followed by incubations with glycosylation modifiers allowed for examination of de novo synthesized CLA/HECA-452 epitopes re-expressed on the cell surface. After neuraminidase digestion, cells were then incubated with tunicamycin (0.02 mM) (an inhibitor of GlcNAc phosphotransferase, the initial step of N-glycosylation), swainsonine (0.23 mM) (an inhibitor of α-mannosidase II and complex-type N-glycosylation), 4-F-GlcNAc (0.05 mM) (putative inhibitor of poly-N-acetyllactosamine biosynthesis), BAG (an inhibitor of O-glycan biosynthesis) (<2 mM) or GlcNAc (5 mM) (negative control, naturally-occurring metabolic counterpart of 4-F-GlcNAc)for 30 h in the presence of human recombinant IL-2. […] Concentrations for BAG were selected based on maximal O-glycosylation inhibitory effects at non-growth inhibitory concentrations as previously reported (39). To determine a suitable concentration of 4-F-GlcNAc for examining glycoconjugate-modifying effects without influencing cell growth or protein synthesis, we performed preliminary growth inhibitory experiments of cells incubated with 4-F-GlcNAc for 2 cell doublings (˜36 h) at 37° C. (cell viability assessed by Trypan-blue exclusion).
Flow cytometric analysis was performed on human leukocytes utilizing both direct and indirect immunofluorescence staining approaches. All cells utilized for these experiments were washed twice with cold PBS/2%FBS and suspended at 10^7/ml PBS/1% FBS. Primary antibodies, anti-CLA (HECA-452), -CD4, -CD8, CD43 (L60) and PSGL-1 (PL-2) along with the appropriate isotype-matched control antibodies were incubated with the cells for 30 min on ice. Following two washes with PBS/2%FBS, cells were resuspended in PBS/1%FBS and fluorochrome-conjugated secondary antibodies (2 μl) and incubated for 30 min on ice.

[3] = tested on: human colon HT-29 cancer cells; conditions: HT-29 cells; cited from earlier work
[4] = tested on: human CLA+ T-cells; experiment: Growth inhibition of human CLA+ T-cell cultures (Trypan-blue exclusion); format: cell-based

In the case of `CC(=O)N[C@H]1C(OC(C)=O)O[C@H](COC(C)=O)[C@@H](F)[C@@H]1OC(C)=O` (stereo partly drawn) [4-F-GlcNAc, 2-acetamido-2-deoxy-1,3,6-tri-O-acetyl-4-deoxy-4-fluoro-D-glucopyranose], the “IC50 values, growth of tumor cell lines and normal endothelial cells” value [1] is reported as “identical to those that were previously described”, the “HECA-452 epitopes on CLA+ T-cells” value ([2]; 0.05, 0.1 or 0.5 mM for 30 hr after neuraminidase) is reported as “marked, concentration-dependent decrease” and the “HECA-452 Mean Channel Fluorescence” value ([2]; neuraminidase then recovery in 0.05 mM) is reported as 228. The “HECA-452 Mean Channel Fluorescence” value ([2]; neuraminidase then recovery in 0.1 mM) was 217, the “HECA-452 Mean Channel Fluorescence” value ([2]; neuraminidase then recovery in 0.5 mM) was 62 and the “radiolabeled sugar incorporation into cell surface glycoproteins” value [3] was “inhibition of radiolabeled glucosamine, fucose and galactose incorporation”. For the same molecule, the “IC10 value (growth inhibition)” value ([4]; 2 cell doublings (~36 h) at 37° C., Trypan-blue exclusion) was greater than 200 µM and the “growth inhibitory effects on CLA+ T-cell cultures” value ([4]; treated for 36 hr at concentrations less than 0.5 mM) was “no inhibition of growth”.
